Reference: patent US11795481B2, “Processes for producing a fermentation product” (Novozymes A/S, priority 2017, dated 2023)

Key:
[1] = tested on: multi-strain LAB culture; experiment: SSF of control mash with 1% w/w infected mash, AA13 candidates, HPLC of organic acids and ethanol (Example 3); type: cell-based; conditions: SSF 32° C. up to 24 hours, 20% DS; for % delta Ethanol / % delta Lactic Acid: vs No Treatment
Protocol: A control mash was prepared in-house with an industry relevant blend of AA369 and Protease Pfu using a Lab-O-Mat incubator for 2 hours at 85° C. and 36% DS to simulate typical industry conditions. The mash was then frozen prior to use in SSF. An infected mash was prepared by infecting the control mash with a multi-strain LAB culture grown in MRS. The bacteria in control mash was incubated overnight, and then frozen with 20% glycerol. For this experiment, 1% weight/weight of the infected mash was mixed into the control mash. This mimics an infection event at a large-scale ethanol facility. For SSF, all mash was prepared with 1000 ppm of urea to aid with yeast fermentation. All treatments were dosed with a baseline commercial glucoamylase GSA, while AA13 candidates were dosed at either 10 ug/g-DS or 50 ug/g-DS. SSF was performed at 5 g scale with 10 uL/g rehydrated Ethanol Red yeast at 32° C. for up to 24 hours at 20% DS. At the end of fermentation, samples were deactivated with 50 uL of 40% sulfuric acid and then centrifuged. The supernatant was filtered through a 0.2 μm filter and then measured for soluble carbohydrates and organic acids using an ion-exchange H-column on HPLC.

[2] = tested on: mixed bacterial population previously isolated from an infected commercial corn mash; experiment: Low Dry Solids fermentation of 1% infected liquefied corn mash with AA13 polypeptides, HPLC analysis (Example 2); type: cell-based; conditions: after 20 hrs of Low Dry Solids fermentation of corn mash; increasing doses; vs control
Protocol: Clean liquefied corn mash: Clean corn mash was prepared in our laboratories under typical liquefaction conditions using a blend of AA369 and Protease Pfu. […] Substrate is stored frozen and thawed before use.
Infected liquefied corn mash: Clean corn mash was inoculated with a mixed bacterial population previously isolated from an infected commercial corn mash. The infected mash was incubated with the inoculant for up to 24 hours at approximately 32° C. […] Substrate is frozen in 20% glycerol solution and then thawed before use.
1% Infected liquefied mash: Per every 100 g of “clean” mash, 1 g of infected mash is added and mixed thoroughly.
Low Dry Solids fermentation. 1% Infected Mash was diluted to 20% dry solids. 200 ppm target urea was added as an exogenous nitrogen source for yeast. Commercial glucoamylase GSA, was used at a dose of 0.6 AGU/g-dry solids. Yeast was pitched at a rate of 0.25 g/L. Experimental enzymes were dosed between 2 ppm and 100 ppm. Dosage were against dry solids.
Positive control: Penicillin was used at 25 ppm.
Negative control: No treatment was added.
Yeast, enzymes, and any additional tap water was added at approximately the same time to start fermentation. […]
Fermentations were sampled at various time points to examine soluble carbohydrates and organic acids. […] Analytes were quantified against internal standards. […]
Data was analyzed using SAS JMP statistical software.

With “Aspergillus terreus: AA13 polypeptide from Aspergillus terreus having the amino acid sequence of SEQ ID NO: 119” the “average Ethanol” value ([1]; AA13 dose 10 ug/g-DS) was 77.1 g/L, the “average Lactic Acid” value ([1]; AA13 dose 10 ug/g-DS) was 3.4 g/L and the “% delta Ethanol” value ([1]; AA13 dose 10 ug/g-DS) was −0.7%. The “% delta Lactic Acid” value ([1]; AA13 dose 10 ug/g-DS) was 1.3%, the “average Ethanol” value ([1]; AA13 dose 50 ug/g-DS) was 78.0 g/L and the “average Lactic Acid” value ([1]; AA13 dose 50 ug/g-DS) was 3.4 g/L. For the same substance, the “% delta Ethanol” value ([1]; AA13 dose 50 ug/g-DS) was 0.4%, the “% delta Lactic Acid” value ([1]; AA13 dose 50 ug/g-DS) was 1.3% and the “lactic acid titers, dose response (FIG. 5)” value [2] was “reduced lactic acid titers compared to the control”.
